Data published in patent US5185340A, “Pyrimidinyl arylalkyl ethers with antihypertensive activity” (American Home Products Corporation, priority 1992, dated 1993).

Experiments:
angiotensin II receptor = assay: Rat adrenal receptor binding assay, displacement of radiolabeled angiotensin II; set-up: species or system rat (male Sprague-Dawley); settings: rat adrenal cortex membranes; 125I-A II 1 nM; read-out: Inhibition of 125I-Angiotensin II binding, IC50
Method: The high affinity of the compounds for the angiotensin II receptor was established using a rat adrenal receptor binding assay, measuring the displacement of radiolabeled angiotensin II (A II) from the receptor, described as follows: Anesthetize male Sprague-Dawley rats (300-400 g body weight) with CO2 and sacrifice by cervical dislocation. Dissect adrenal glands and keep in ice-cold sucrose buffer. (0.2M sucrose, 1 mM EDTA, 10 mM Trizma base, pH=7.2). Remove medulla by squashing. Mince the cortex, rinse and homogenize in a chilled ground glass tissue grinder with 15 ml sucrose buffer. Centrifuge at 3000× g for 10 min. (Sorvall RCSC centrifuge, SS34 rotor 6200 rpm). Decant supernatant through gauze. Centrifuge combined supernatants at 12000× g for 13 min. (Beckman ultracentrifuge, 80Ti rotor, 13000 rpm). Centrifuge the supernatant from the previous step at 102000× g for 60 min. (Beckman ultracentrifuge,80Ti rotor, 38200 rpm). All steps are carried out at 4° C. Resuspend the pellet in 0.5 mL assay buffer (50 mM Tris HCI, 5 mM MgCl2, 0.2% BSA (proteasefree), pH=7.4, 25° C.). Store on ice. Determine membrane protein by Lowry or Bradford assay with BSA as standard. The binding assay is performed in triplicate, in 12×75 mm plastic test tubes or in 96-well plate (final volume of 0.25 mL). Add 140 μL assay buffer. […] Calculate the quantities of hot A II and the cold A II needed and make the dilution. […]

[1] = test system: Angiotensin II infused rat; assay: Reduction of blood pressure in Angiotensin II infused rat; format: in vivo; settings: 3 mg/kg/ml via duodenal cannula
Method: In accordance with their ability to antagonize angiotensin II, the compounds of this invention show antihypertensive action in the following A II-infused rat model. Rats are anesthetized with Dial-Urethane (0.60 mL/kg, ip) and the trachea cannulated with PE 240. Either one femoral artery and both femoral veins or the carotid artery and the corresponding jugular vein are cannulated with PE 50. If the jugular vein is cannulated, two cannulas are placed in the one vein. The initial portion of the duodenum (just distal to the stomach) is cannulated with PE 50 via a small midline incision. Arterial pressure and heart rate are measured from the arterial cannula. Ten to 15 min are allowed following surgery for stabilization of arterial pressure. Ganglion blockade is then produced by intravenous administration of mecamylamine at 3 mg/kg (1 mL/kg of a 3 mg/mL solution). Ganglion blockade causes a fall in arterial pressure of about 50 mmHg. Mecamylamine is given every 90 min throughout the remainder of the experiment. An A II infusion is then begun into the other venous cannula at 0.25 μg/kg/min (at […]). The A II infusion returns arterial pressure to or slightly above the control level. Once arterial pressure has stabilized with the A II infusion, baseline values for mean arterial pressure (MAP) and heart rate are taken. The test compound, suspended in methyl cellulose, is then administered via the duodenal cannula at 0.1, 3 or, 30 mg/kg in a volume of 1 mL/kg. Mean arterial pressure and heart rate values are tabulated at 15, 30, 60, 90, 120, 150, 180, 210, and 240 min after administration of the test compound.

| Structure (SMILES) | IC50 (angiotensin II receptor) [nM] | % decrease in MAP ([1]; 15 min) [%] | % decrease in MAP ([1]; 90 min) [%] | % decrease in MAP ([1]; 240 min) [%] |
| --- | --- | --- | --- | --- |
| CCCc1c(CC)nc(C(F)(F)F)nc1OCc1ccc(-c2ccccc2-c2nnn[nH]2)cc1 [Example 4, 6-Ethyl-5-propyl-4-[[2'-(1H-tetrazol-5-yl)[1,1'-biphenyl]-4-yl]methoxy]-2-(trifluoromethyl)pyrimidine] | 200 |  |  |  |
| FC(F)(F)c1nc2c(c(OCc3ccc(-c4ccccc4-c4nnn[nH]4)cc3)n1)CCCC2 [Example 5, 4-[[2'-(1H-Tetrazol-5-yl)-biphenyl-4-yl]methoxy]-2-trifluoromethyl-5,6,7,8-tetrahydroquinazoline] | 38 | 22 | 15 | 0 |
